Test results reported in patent US20050227980A1, “Aralkyl and aralkylidene heterocyclic lactam and imides” (Pfizer Inc., priority 2003, published 2005).
Structures can show the parent of a compound that is named as a salt.

Question: For `CN1CCN(c2cccc(C(F)(F)F)c2C=C2OCCN(c3ccc(C(C)(C)C)cc3)C2=O)CC1.Cl`, which melting point is on record?
Answer: Its melting point is 205 °C (dec.).

Question: For `CN1CCN(c2ccccc2CC2OCCN(c3ccc(C(C)(C)C)cc3)C2=O)CC1.Cl` (single isomer, unassigned) [Example 24 (+)], which melting point is on record?
Answer: The melting point was 165.8 to 171.2 °C.

Question: With `CN1CCN(c2ccc(C(F)(F)F)cc2CC2OCCN(c3ccc(C(C)(C)C)cc3)C2=O)CC1.Cl` (stereo not drawn) [Example 32 (−)] as the molecule, how does the melting point read?
Answer: The melting point was 128 to 130 °C.

Question: Which melting point does the source give for `CN1CCN(c2ccc(C(F)(F)F)cc2CC2OCCN(c3ccc(C(C)(C)C)cc3)C2=O)CC1` (racemic) [Example 32 (±), (±)-4-(4-tert-Butyl-phenyl)-2-[2-(4-methylpiperazin-1-yl)-5-trifluoromethyl-benzyl]-morpholin-3-one] here?
Answer: The melting point was 145.1 to 146.2 °C.

Question: For `CN1CCN(c2cc(Cl)ccc2CC2OCCN(c3ccc(C(C)(C)C)cc3)C2=O)CC1` (racemic) [Example 27 (±), (±)-4-(4-tert-Butyl-phenyl)-2-[4-chloro-2-(4-methylpiperazin-1-yl)-benzyl]-morpholin-3-one], which melting point is on record?
Answer: Its melting point is 161.9 to 163.5 °C.

Question: With `CN1CCN(c2cc(Cl)ccc2CC2OCCN(c3ccc(C(C)(C)C)cc3)C2=O)CC1.Cl` (stereo not drawn) [Example 27 (−)] as the molecule, how does the melting point read?
Answer: Its melting point is 159 to 161.8 °C.

Question: With `Cc1ccc(N2CCN(C)CC2)c(C=C2OCCN(c3ccc(C(C)(C)C)cc3)C2=O)c1` [Example 15, 4-(4-tert-Butyl-phenyl)-2-[5-methyl-2-(4-methylpiperazin-1-yl)-benzylidene]-morpholin-3-one] as the molecule, how does the melting point read?
Answer: Its melting point is 209.2 to 211 °C.

Question: For `CN1CCN(c2cc(F)ccc2CC2OCCN(c3ccc(C(C)(C)C)cc3)C2=O)CC1.Cl` (stereo not drawn) [Example 29 (−)], which melting point is on record?
Answer: The melting point was 156.2 to 158.1 °C.

Question: Which melting point does the source give for `CN1CCN(c2c(F)cccc2CC2OCCN(c3ccc(C(C)(C)C)cc3)C2=O)CC1.Cl` (racemic) [Example 30 (±)] here?
Answer: The melting point was 107 to 108.7 °C.

Question: With `Cc1ccc(N2CCN(C)CC2)c(CC2OCCN(c3ccc(C(C)(C)C)cc3)C2=O)c1` (single isomer, unassigned; (-)) [Example 31 (−), (−)-4-(4-tert-Butyl-phenyl)-2-[5-methyl-2-(4-methylpiperazin-1-yl)-benzyl]-morpholin-3-one] as the molecule, how does the melting point read?
Answer: Its melting point is 86 to 88 °C.

Question: Which melting point does the source give for `CN1CCN(c2cccc(F)c2CC2OCCN(c3ccc(C(C)(C)C)cc3)C2=O)CC1.Cl` (stereo not drawn) [Example 28 (+)] here?
Answer: Its melting point is 176.9 to 179.3 °C.

Question: With `CN1CCN(c2cc(F)ccc2CC2OCCN(c3ccc(C(C)(C)C)cc3)C2=O)CC1.Cl` (stereo not drawn) [Example 29 (+)] as the molecule, how does the melting point read?
Answer: Its melting point is 157.4 to 159.6 °C.

Question: For `CN1CCN(c2cc(C(F)(F)F)ccc2C=C2OCCN(c3ccc(C(C)(C)C)cc3)C2=O)CC1` [Example 14, 4-(4-tert-Butyl-phenyl)-2-[2-(4-methylpiperazin-1-yl)-4-trifluoromethyl-benzylidene]-morpholin-3-one], which melting point is on record?
Answer: The melting point was 186.3 to 191.9 °C.

Question: Which melting point does the source give for `CN1CCN(c2ccccc2CC2OCCN(c3ccc(-c4ccccc4)cc3)C2=O)CC1.Cl` (racemic) here?
Answer: The melting point was 219.4 to 222.2 °C.

Question: With `CN1CCN(c2cc(F)ccc2CC2OCCN(c3ccc(C(C)(C)C)cc3)C2=O)CC1.Cl` (racemic) [Example 29 (±)] as the molecule, how does the melting point read?
Answer: The melting point was 155.9 to 159.9 °C.

Question: With `CN1CCN(c2ccccc2CC2OCCN(c3ccc(C(C)(C)C)cc3)C2=O)CC1.Cl` (single isomer, unassigned) [Example 24 (−)] as the molecule, how does the melting point read?
Answer: The melting point was 187.1 to 191.2 °C.

Question: With `CN1CCN(c2cccc(F)c2CC2OCCN(c3ccc(C(C)(C)C)cc3)C2=O)CC1.Cl` (racemic) [Example 28 (±)] as the molecule, how does the melting point read?
Answer: Its melting point is 190.5 to 192.1 °C.

Question: With `CN1CCN(c2cccc(F)c2CC2OCCN(c3ccc(C(C)(C)C)cc3)C2=O)CC1.Cl` (stereo not drawn) [Example 28 (−)] as the molecule, how does the melting point read?
Answer: Its melting point is 178 to 181.4 °C.

Question: Which melting point does the source give for `CN1CCN(c2c(F)cccc2C=C2OCCN(c3ccc(C(C)(C)C)cc3)C2=O)CC1` [Example 12, 4-(4-tert-Butyl-phenyl)-2-[3-fluoro-2-(4-methylpiperazin-1-yl)-benzylidene]-morpholin-3-one] here?
Answer: Its melting point is 184.3 to 187.1 °C.

Question: Which melting point does the source give for `CN1CCN(c2ccccc2CC2OCCN(c3ccc(C(C)(C)C)cc3)C2=O)CC1` (racemic) (as salt: tartrate) [Example 23, (±)-4-(4-tert-Butyl-phenyl)-2-[2-(4-methylpiperazin-1-yl)-benzyl]-morpholin-3-one] here?
Answer: Its melting point is 179 to 180 °C (dec.).

Question: With `CN1CCN(c2cccc(Cl)c2CC2OCCN(c3ccc(C(C)(C)C)cc3)C2=O)CC1.Cl` (racemic) as the molecule, how does the melting point read?
Answer: Its melting point is 215 °C (dec.).

Question: For `CC(C)c1ccc(N2CCOC(=Cc3ccccc3N3CCN(C)CC3)C2=O)cc1` [Example 3, 2-[2-(4-Methylpiperazin-1-yl)-benzylidene]-4-(4-isopropylphenyl)-morpholin-3-one], which melting point is on record?
Answer: The melting point was 155 to 156 °C.

Question: Which melting point does the source give for `CN1CCN(c2c(F)cccc2CC2OCCN(c3ccc(C(C)(C)C)cc3)C2=O)CC1.Cl` (stereo not drawn) [Example 30 (−)] here?
Answer: The melting point was 128.5 to 129.9 °C.

Question: With `CN1CCN(c2cccc(Cl)c2C=C2OCCN(c3ccc(C(C)(C)C)cc3)C2=O)CC1.Cl` as the molecule, how does the melting point read?
Answer: Its melting point is 139 to 142 °C.

Question: With `CN1CCN(c2cccc(F)c2C=C2OCCN(c3ccc(C(C)(C)C)cc3)C2=O)CC1.Cl` as the molecule, how does the melting point read?
Answer: Its melting point is 187.5 to 192.6 °C.

Question: For `CN1CCN(c2ccccc2C=C2OCCN(c3ccc(C(C)(C)C)cc3)C2=O)CC1` [Example 5, 2-[2-(4-Methylpiperazin-1-yl)-benzylidene]-4-(4-tert-butylphenyl)-morpholin-3-one], which melting point is on record?
Answer: The melting point was 169 to 171 °C.

Question: For `CC(C)c1ccc(N2CCOC(Cc3ccccc3N3CCN(C)CC3)C2=O)cc1.Cl` (racemic), which melting point is on record?
Answer: Its melting point is 185.7 to 188.1 °C.

Question: Which melting point does the source give for `CN1CCN(c2cc(Cl)ccc2C=C2OCCN(c3ccc(C(C)(C)C)cc3)C2=O)CC1` [Example 10, 4-(4-tert-Butyl-phenyl)-2-[4-chloro-2-(4-methylpiperazin-1-yl)-benzylidene]-morpholin-3-one] here?
Answer: Its melting point is 209 to 210.8 °C.

Question: For `Cc1ccc(N2CCN(C)CC2)c(CC2OCCN(c3ccc(C(C)(C)C)cc3)C2=O)c1` (single isomer, unassigned; (+)) [Example 31 (+), (+)-4-(4-tert-Butyl-phenyl)-2-[5-methyl-2-(4-methylpiperazin-1-yl)-benzyl]-morpholin-3-one], which melting point is on record?
Answer: The melting point was 92 to 93 °C.

Question: Which melting point does the source give for `CC1CN(c2ccccc2C=C2OCCN(c3ccc(C(C)(C)C)cc3)C2=O)CC(C)N1C` (stereo not drawn) [Example 6, 2-[2-(3,4,5-Trimethylpiperazin-1-yl)-benzylidene]-4-(4-tert-butylphenyl)-morpholin-3-one] here?
Answer: The melting point was 167 to 168 °C.

Question: For `CN1CCN(c2ccc(C(F)(F)F)cc2CC2OCCN(c3ccc(C(C)(C)C)cc3)C2=O)CC1.Cl` (stereo not drawn) [Example 32 (+)], which melting point is on record?
Answer: The melting point was 136 to 138 °C.

Question: For `CN1CCN(c2ccccc2CC2OCCN(Cc3ccc(C(C)(C)C)cc3)C2=O)CC1.Cl` (racemic), which melting point is on record?
Answer: The melting point was 215 to 216 °C.

Question: For `CN1CCN(c2ccccc2C=C2OCCN(Cc3ccc(C(C)(C)C)cc3)C2=O)CC1` [Example 20, 4-(4-tert-Butyl-benzyl)-2-[2-(4-methylpiperazin-1-yl)-benzylidene]-morpholin-3-one], which melting point is on record?
Answer: Its melting point is 68 to 70 °C.

Question: With `CN1CCN(c2cc(Cl)ccc2CC2OCCN(c3ccc(C(C)(C)C)cc3)C2=O)CC1.Cl` (stereo not drawn) [Example 27 (+)] as the molecule, how does the melting point read?
Answer: The melting point was 159.5 to 161.7 °C.

Question: With `CC1CN(c2ccccc2CC2OCCN(c3ccc(C(C)(C)C)cc3)C2=O)CC(C)N1C.Cl` (racemic) as the molecule, how does the melting point read?
Answer: The melting point was 135 °C (dec.).

Question: Which melting point does the source give for `CN1CCN(c2c(F)cccc2CC2OCCN(c3ccc(C(C)(C)C)cc3)C2=O)CC1.Cl` (stereo not drawn) [Example 30 (+)] here?
Answer: The melting point was 104.7 °C (dec.).
